Values quoted from earlier work in patent publication US20030099724A1, “Compounds for prevention of diabetic retinopathy” (priority 2001, published 2003).

Assays:
diabetic retinopathy = settings: rat models

Row | solubility in alcohol (alcohol) | solubility in water (water) | SMILES | progression of diabetic retinopathy (diabetic retinopathy)
1 | sparingly soluble | slightly soluble | CCOC(=O)C1=C(COCCN)NC(C)=C(C(=O)OC)C1c1ccccc1Cl (stereo not drawn) [Amlodipine besylate, amlodipine besylate] | –
2 | – | – | N=C(N)NN [amino guanidine] | retards the progression of diabetic retinopathy
